Data set [1] concerns the target Bcl-xL (Homo sapiens, UniProt Q07817). Conditions: cited from earlier work.
The subject of data set [2] is H146 small-cell lung cancer xenograft. Further details: method as in PMID 23448298. Conditions: H146 xenograft in SCID mice; cited from earlier work.
Data set [3] relates to four small-cell lung cancer cell lines sensitive to ABT-263. Further details: method as in PMID 23448298. Conditions: cited from earlier work.
Data set [4] deals with Bcl-2 (Homo sapiens, UniProt P10415). Conditions: cited from earlier work.
Chain of Bcl-2 (Homo sapiens, UniProt P10415) (P10415 whole entry): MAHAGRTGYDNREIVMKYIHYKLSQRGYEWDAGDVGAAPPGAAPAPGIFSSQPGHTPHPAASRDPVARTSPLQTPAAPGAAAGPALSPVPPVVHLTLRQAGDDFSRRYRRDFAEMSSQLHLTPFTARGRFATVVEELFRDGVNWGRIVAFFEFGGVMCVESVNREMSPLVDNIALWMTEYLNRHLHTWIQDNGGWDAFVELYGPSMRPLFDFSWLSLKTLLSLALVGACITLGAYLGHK
A further data set relates to H82. The data set can be described thus: SCLC cell growth inhibition (WST-8), H82. Type of data set: cell-based. The settings on record: Homo sapiens, NCI-H82; 96-h incubation, means ± SD (n = 3–6). As for the experimental part: (§1) All the SCLC cell lines were purchased from American Type Culture Collection (Manassas, VA) and cultured as recommended. All these cell lines were passaged fewer than 6 months after purchase. MCL1 knockout (MCL1^−/−) MEF cells were kindly provided by Dr. David Huang (The Walter and Eliza Hall Institute of Medical Research, Melbourne, Australia). Cell growth inhibition was evaluated by means of a WST-8 assay (Dojindo, Rockville, MD) as described previously. Mitochondrial membrane potential was determined by JC-1 staining using a JC-1 Mitochondrial Membrane Potential Assay kit (Cayman). Apoptosis analysis was performed using an Annexin V/propidium iodide (PI) apoptosis detection kit (Roche Applied Sciences, Indianapolis, IN).

The test system of a further data set is H146. The data set can be described thus: SCLC cell growth inhibition (WST-8), H146. Conditions: Homo sapiens. Type of data set: cell-based. As for the experimental part:
as §1
Data are representative of two independent experiments.

The next data set has as its system H1417. As to the kind of experiment: SCLC cell growth inhibition (WST-8), H1417. The format is cell-based. Conditions: Homo sapiens, NCI-H1417; 96-h incubation, means ± SD (n = 3–6). Here is the method:
as §1

The test system of a further data set is H196. As to the kind of experiment: SCLC cell growth inhibition (WST-8), H196. The settings on record: Homo sapiens, NCI-H196; 96-h incubation, means ± SD (n = 3–6). Type of data set: cell-based. Here is the method: as §1
Another data set concerns H146 xenograft tumors. The data set can be described thus: H146 subcutaneous xenograft model. Type of data set: in vivo, SCID mice. Here is the method: Tumor sizes were measured 2–3 times per week. Tumor growth inhibition was calculated by using the formula: 100% (mean volume of controls - mean volume of treated)/mean volume of controls.
Figure 10 In vivo antitumor activity of BM-1197. […] Data shown are mean ± SEM for 6–8 mice. (E & F) SCID mice bearing H146 or H1963 cells were treated with 10 mg/kg of BM-1197 IV for the indicated times. Tumor lysates were analyzed by immunoblotting.

Another data set has as its system H187. As to the kind of experiment: SCLC cell growth inhibition (WST-8), H187. The settings on record: Homo sapiens, NCI-H187; 96-h incubation, means ± SD (n = 3–6). The format is cell-based. As for the experimental part:
as §1

The next data set deals with H889. As to the kind of experiment: SCLC cell growth inhibition (WST-8), H889. Type of data set: cell-based. Conditions: Homo sapiens, NCI-H889; 96-h incubation, means ± SD (n = 3–6). Here is the method:
as §1

Data set [5] has as its system MCL1-wild-type (WT) MEF cells. As to the kind of experiment: cell growth inhibition, WST assay, wild-type MEF. Conditions: Mus musculus, 72 h, 3 days. The format is cell-based. As for the experimental part: as §1
(§2) (B) MCL1^−/− cells were treated with 100 nM of BM-1197 for 16 h and stained with Annexin V/PI for flow cytometry. […] They are given in the order upper left, upper right, lower left, lower right.

The test system of a further data set is DMS79. As to the kind of experiment: SCLC cell growth inhibition (WST-8), DMS79. The format is cell-based. Conditions: Homo sapiens, DMS-79; 96-h incubation, means ± SD (n = 3–6). As for the experimental part: as §1
Data set [6] concerns the target T1, Bcl-2 (Mus musculus, UniProt P10417).
T1 construct: endogenous in cells; host or cells: MEF MCL1-/- cells
The data set can be described thus: cellular thermal shift assay (CETSA), Bcl-2. The format is cell-based. The settings on record: 1 µM, 1 h, MEF MCL1−/− cells. Here is the method: (§3) Drug-target engagement was assessed using CETSA as described by Molina et al.. Briefly, cells were treated with drugs for 1 h, then harvested, washed with PBS, and resuspended in PBS. The resuspended cells were freeze-thawed 4 times. The soluble fraction (lysate) was separated from cell debris by centrifugation at 20000×g for 20 minutes at 4°C and then analyzed by Western blots.
(§4) Drug-treated cells were heated at gradient temperature from 42°C to 62°C for 3 min then freeze-thawed 4 times. The soluble fractions of the lysed cells were analyzed by immunoblotting. (B) MEF MCL1^− ^/− cells were treated with drugs at the indicated doses for 1 h before collected for CETSA.

For another data set, the system named is H1963. As to the kind of experiment: SCLC cell growth inhibition (WST-8), H1963. Conditions: Homo sapiens, NCI-H1963; 96-h incubation, means ± SD (n = 3–6). The format is cell-based. Here is the method:
as §1

Data set [7] concerns MCL1-deficient (MCL1−/−) MEF cells. As to the kind of experiment: cell growth inhibition, WST assay, MCL1-deficient MEF. The settings on record: Mus musculus, MEF, 72 h; 3 days, WST assay. Type of data set: cell-based, mouse. Here is the method:
as §1, §2

For the next data set, the system named is H211. The data set can be described thus: SCLC cell growth inhibition (WST-8), H211. Conditions: Homo sapiens, NCI-H211; 96-h incubation, means ± SD (n = 3–6). Type of data set: cell-based. Here is the method:
as §1

The subject of a further data set is DMS273. The data set can be described thus: SCLC cell growth inhibition (WST-8), DMS273. The format is cell-based. Conditions: Homo sapiens, DMS-273; 96-h incubation, means ± SD (n = 3–6). As for the experimental part:
as §1

The subject of the next data set is DMS53. The data set can be described thus: SCLC cell growth inhibition (WST-8), DMS53. The format is cell-based. Conditions: Homo sapiens, DMS-53; 96-h incubation, means ± SD (n = 3–6). As for the experimental part:
as §1

The target in data set [8] is T2, Bcl-xL (Mus musculus, UniProt Q64373).
T2 construct: endogenous in cells; host or cells: MEF MCL1-/- cells
T2 sequence (Q64373 whole entry): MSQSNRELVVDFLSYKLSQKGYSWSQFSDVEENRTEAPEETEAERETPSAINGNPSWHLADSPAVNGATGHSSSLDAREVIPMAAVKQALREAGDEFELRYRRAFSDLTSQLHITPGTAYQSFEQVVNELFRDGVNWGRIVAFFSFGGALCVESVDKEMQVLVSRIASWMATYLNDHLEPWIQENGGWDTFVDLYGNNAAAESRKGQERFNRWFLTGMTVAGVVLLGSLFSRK
As to the kind of experiment: cellular thermal shift assay (CETSA), Bcl-xL. Type of data set: cell-based. Conditions: 1 µM, 1 h, MEF MCL1−/− cells. Here is the method: as §3, §4

Another data set relates to SW1271. As to the kind of experiment: SCLC cell growth inhibition (WST-8), SW1271. Type of data set: cell-based. Conditions: Homo sapiens, 96-h incubation, means ± SD (n = 3–6). Here is the method:
as §1

Where two headings read alike, the source gives them in different places. A value given as a limit tells only on which side of the number the result lay.

T1 sequence (P10417 whole entry): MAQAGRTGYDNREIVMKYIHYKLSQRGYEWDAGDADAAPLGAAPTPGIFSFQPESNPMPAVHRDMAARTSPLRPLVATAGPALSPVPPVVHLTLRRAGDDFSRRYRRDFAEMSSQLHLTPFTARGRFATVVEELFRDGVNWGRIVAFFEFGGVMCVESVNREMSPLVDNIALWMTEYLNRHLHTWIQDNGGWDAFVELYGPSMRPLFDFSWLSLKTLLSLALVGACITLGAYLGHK
Chain of Bcl-xL (Homo sapiens, UniProt Q07817) (Q07817 whole entry): as the sequence (Q64373 whole entry) above, with E40G, A43S, R45M, S168A, D193E counted along it

In the case of `Cc1c(C(=O)NS(C)(=O)=O)c(-c2cccc(N3CCN(c4ccc(NS(=O)(=O)c5ccc(N[C@H](CCN(C)C)CSc6ccccc6)c([N+](=O)[O-])c5)cc4)CC3)c2)c(-c2ccc(Cl)cc2)n1C(C)C` [BM-1074], the Ki on Bcl-xL [1] and on Bcl-2 [4] was under 0.001 µM throughout. Also, the tumor regression result in data set [2] is “rapid, complete, and durable tumor regression”. In addition, the IC50 in data set [3] (four small-cell lung cancer cell lines sensitive to ABT-263, read-out: IC50 cancer cell growth) is 0.001 to 0.002 µM. Further, the “times more potent than ABT-263” value in data set [3] (four small-cell lung cancer cell lines) was over 10 times.
As for `CC1(C)CCC(c2ccc(Cl)cc2)=C(CN2CCN(c3ccc(C(=O)NS(=O)(=O)c4ccc(N[C@H](CCN5CCOCC5)CSc5ccccc5)c(S(=O)(=O)C(F)(F)F)c4)cc3)CC2)C1` [ABT-263, reference compound], the IC50 in the data set with H82 was over 2 µM; with H146 (NCI-H146, 96 h, read-out: IC50 (1% FBS), H146, 4 days, WST assay, 1% FBS), 0.0035 µM; with H146 (NCI-H146, 96 h, read-out: IC50 (1% FBS+3% HSA), H146, 4 days, WST assay, 1% FBS+3% HSA), 0.083 µM; with H146 (NCI-H146, 96 h, read-out: IC50 (10% FBS), H146, 4 days, WST assay, 10% FBS) it was 0.0268 µM; in the data set on H146 (NCI-H146, 96 h, read-out: IC50 (50% FBS), H146, 4 days, WST assay, 50% FBS), 0.0752 µM; in the data set on H146 (NCI-H146, 96-h incubation, means ± SD (n = 3–6), read-out: IC50 cell growth, H146), 0.024 ± 0.012 µM. Also, the 50% inhibitory concentration (IC50) with H1417 is 0.079 ± 0.031 µM; in the data set with H196, over 2 µM; in the data set on H187, 0.07 ± 0.029 µM; in the data set on H889, 0.03 ± 0.011 µM; in [5], over 2 µM; with DMS79, 0.43 ± 0.343 µM. Further, the IC50 was 0.03 ± 0.017 µM in the data set on H1963; 0.041 ± 0.003 µM in [7]; 0.066 ± 0.05 µM in the data set with H211; over 2 µM in the data set on DMS273; 0.197 ± 0.05 µM with DMS53; over 2 µM in the data set with SW1271. The “tumors regrown 29 days after the last treatment” value in the data set with H146 xenograft tumors (100 mg/kg daily oral dosing) is “Four out of 8”. Further, the “tumors regrown 57 days after the last treatment” value in the data set on H146 xenograft tumors (100 mg/kg daily oral dosing) was 7 of the 8. In the data set on H146 xenograft tumors (100 mg/kg daily oral dosing (5 days per week), 14 days after the start of the treatment), the tumor regression entry is listed as “regressed H146 tumors to a barely palpable state”. For the same compound, in the data set with H146 xenograft tumors (all dose-schedules in H146 model, no other signs of toxicity), the “weight loss compared to control group” value is given as “no statistically significant weight loss”. Besides, the “thermal stability of Bcl-2 protein” value at Bcl-2 [6] is “enhanced”. For the same compound, the “thermal stability of Bcl-xL protein” value at Bcl-xL [8] is listed as “enhanced”.

Source of the values: publication PMC4047118, “BM-1197: A Novel and Specific Bcl-2/Bcl-xL Inhibitor Inducing Complete and Long-Lasting Tumor Regression In Vivo” (PLoS ONE, 2014).
